From BindingDB's records for doi:10.1111/cbdd.12826 (Universidade De Lisboa, 2016)
Where a name gives a salt, the structure may show the parent alone.

Molecular target: DNA-(apurinic or apyrimidinic site) endonuclease (Homo sapiens, UniProt P27695)
Experiment: Fluorescence-Based APE1 Endonuclease Activity Assay
Settings: pH 7.5
Method: In this assay, the complementary single-stranded oligonucleotides at […] were mixed at a 1:1 ratio and annealed in assay buffer (50 mm Tris pH 7.5, 25 mm NaCl, 2 mm MgCl2, 1 mm DTT, 0.01% Tween-20) at 95 °C for 5 min to generatethe double-stranded substrate of APE1.[A. Simeonov, A. Kulkarni, D. Dorjsuren, A. Jadhav, M. Shen, D. R. McNeill, C. P. Austin, D. M. Wilson 3rd, PLoS ONE 2009, 4, p. e5740.] After the annealing, the reaction mixture was allowed to cool to room temperature. The assay was carried out in 96-well black plates with flat bottom (Costar, Corning Inc., NY, USA) at a finalreaction volume of 100 μL. The reaction mixtures containing 2.5 U of human recombinant APE1 (6 μL) (New England Biolabs, Ipswich, MA, USA) were incubated in the assay buffer abovementioned, in the absence or presence of the putative APE1 inhibitors (5 μL), at room temperature for 15 min. The reaction was initiated by the addition of double-stranded substrate (6 μL) to obtain the final concentration of 250 nm. DMSO was maintained at a concentration of 0.5% (v/v) in all assays (negative control). Fluorescence readings were acquired at 1-min intervals over an incubation period of 30 min at 37 °C using a SpectraMax Gemini EM microplate plate reader (Molecular Devices, Berkshire, UK) in the kinetic mode at excitation wavelength 550 nm, emission wavelength 584 nm, and cutoff at 570 nm.

Sequence of DNA-(apurinic or apyrimidinic site) endonuclease (P27695 whole entry): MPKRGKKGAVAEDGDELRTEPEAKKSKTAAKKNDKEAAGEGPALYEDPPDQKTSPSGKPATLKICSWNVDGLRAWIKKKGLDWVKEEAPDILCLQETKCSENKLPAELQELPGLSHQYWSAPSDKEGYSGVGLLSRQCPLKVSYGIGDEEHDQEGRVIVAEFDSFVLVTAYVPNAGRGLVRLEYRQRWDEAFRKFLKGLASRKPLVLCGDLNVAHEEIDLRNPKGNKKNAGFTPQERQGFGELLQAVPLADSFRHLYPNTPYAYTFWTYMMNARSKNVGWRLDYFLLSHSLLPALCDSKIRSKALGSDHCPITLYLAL

Row | IC50 [µM] | SMILES
1 | 7.76 | Nc1ccc2cc(S(=O)(=O)O)cc(O)c2c1/N=N/c1ccc([N+](=O)[O-])cc1S(=O)(=O)O [6-amino-4-hydroxy-5-[(4-nitro-2-sulfophenyl)azo]-2-naphtalenesulfonic acid disodium salt (Compound 37)]
2 | 8.85 | Nc1ccc(/N=N/c2c(N)ccc3cc(S(=O)(=O)O)cc(O)c23)c(S(=O)(=O)O)c1 [6-amino-5-[(4-amino-2-sulfophenyl)azo]-4-hydroxy-2-naphtalenesulfonic acid disodium salt (Compound 41)]
3 | 0.25 | CC(=O)Nc1ccc(/C=C/c2ccc(N=C=S)c(S(=O)(=O)O)c2)c(S(=O)(=O)O)c1 [(5-(acetylamino)-2-[2-(4-isothiocyanato-3-sulfophenyl)ethenyl]benzenesulfonic acid disodium salt (Compound 22)]
